Results on 23 compounds are retold here after patent US8420820B2, “Pyrrolopyridinylpyrimidin-2-ylamine derivatives” (Merck Patent GmbH, priority 2008, dated 2013).

Test [1] addresses T1, PDK1 (Homo sapiens, UniProt O15530).
T1 construct: His6 (N)
The test is described as follows: Test for the inhibition of PDK1 (flashplate, 33P-ATP). The following applies: His6-PDK1 3.4 nM, 4 μM ATP, 30° C., 60 min. It counts as biochemical. How it is done:
The experimental batches are carried out in a flashplate system with 384 wells/microtitration plate.
In each case, the PDK1 sample His6-PDK1(SEQ ID NO: 2)(1-50)(3.4 nM), the PDK1 substrate biotin-bA-bA-[…] (SEQ ID NO: 3) (400 nM), 4 μM ATP (with 0.2 μCi of ^33P-ATP/well) and the test substance in 50 μl of conventional experimental solution per well are incubated at 30° C. for 60 min. The test substances are employed in corresponding concentrations (if desired in a dilution series). The control is carried out without test substance. The reaction is stopped using standard methods and washed. The activity of the kinase is measured via the incorporated radioactivity in top count. In order to determine the non-specific kinase reaction (blank value), the experimental batches are carried out in the presence of 100 nM staurosporin.
The radioactivity (decompositions per minute) of the blank value (no use of test substance in the presence of staurosporin) is subtracted from all other radioactivity values. The controls (kinase activity without test substance) are set equal to 100 percent and all other radioactivity values (after subtracting the blank value) are expressed set in relation thereto (for example in % of the control).
IC50 values (50% inhibition) are determined with the aid of statistics programmes, such as, for example, RS1.

Test [2] concerns PDK1 kinase activity in PC3 cells (phospho-T308-PKB). The experiment in a line: Cellular testing of PDK1 kinase inhibitors in PC3 cells (Luminex, phospho-T308-PKB). It counts as cell-based. To be noted: Homo sapiens, PC-3, 0.5 h, 30 min with test substance, serum-free, phospho-T308-PKB by Luminex, read-out: IC50 [PC3 P-PKB Thr308]. On the procedure:
Method for the Cellular Testing of PDK1 Kinase Inhibitors in PC3 Cells.
The cellular assay for the determination of the PDK1 kinase activity is carried out as a Luminex assay in the 96-well format. PC3 cells are sown at 20,000 cells per well in 100 μl of medium (45% of […]/45% of Ham's F12/10% of FCS) and incubated on the following day for 30 min with a serial dilution of the test substance (7 concentrations) under serum-free conditions. The cells are subsequently lysed using 90 μl of lysis buffer (20 mM tris/HCl pH 8.0, 150 mM NaCl, 1% of NP40, 10% of glycerol, 1% of phosphatase inhibitor I, 1% of phosphatase inhibitor II, 0.1% of protease inhibitor cocktail III, 0.01% of benzonase) per well, and the lysates are separated off from insoluble cell constituents by means of centrifugation through a 96-well filter plate (0.65 μm). The lysates are incubated overnight at 4° C. with shaking with Luminex beads to which an anti-total PKB antibody is coupled. The detection is carried out on the following day by addition of a phospho-T308-PKB antibody and a species-specific […] secondary antibody. The detection of phospho-T308-PKB is carried out by measurement in a Luminex100 instrument by determination of 100 events per cavity in a measurement time of 60 sec. As pharmacological blank, the signals obtained from cells which have been treated with 10 μM staurosporin are subtracted from all other batches. The control value used for maximum phosphorylation of PKB on T308 are the signals from cells which have only been treated with the solvent (0.3% of DMSO). The values of the batches treated with test substance are calculated therefrom as percentage of control, and IC50 values are determined by means of RS1.

Broadly, the IC50 is the concentration that gives 50% inhibition.

T1 sequence (O15530 51-556): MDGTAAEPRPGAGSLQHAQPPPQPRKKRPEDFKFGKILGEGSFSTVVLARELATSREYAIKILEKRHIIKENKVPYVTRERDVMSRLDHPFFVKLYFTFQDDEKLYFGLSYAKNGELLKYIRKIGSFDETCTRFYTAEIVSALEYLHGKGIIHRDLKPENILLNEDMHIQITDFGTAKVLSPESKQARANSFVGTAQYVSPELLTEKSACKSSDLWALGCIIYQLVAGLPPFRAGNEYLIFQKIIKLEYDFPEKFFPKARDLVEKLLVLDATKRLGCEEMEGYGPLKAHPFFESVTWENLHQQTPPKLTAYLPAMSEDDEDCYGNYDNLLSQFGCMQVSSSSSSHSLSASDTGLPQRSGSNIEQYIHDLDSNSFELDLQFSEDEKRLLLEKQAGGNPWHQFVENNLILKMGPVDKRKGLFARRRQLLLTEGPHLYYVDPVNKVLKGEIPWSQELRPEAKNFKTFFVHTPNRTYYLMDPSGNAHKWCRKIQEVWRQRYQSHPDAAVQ

`CCc1cc(-c2c[nH]c3ncc(-c4cnn(CC(=O)N5CCOCC5)c4)cc23)nc(N)n1` [Compound A32, 2-{4-[3-(2-Amino-6-ethylpyrimidin-4-yl)-1H-pyrrolo[2,3-b]pyridin-5-yl]pyrazol-1-yl}-1-morpholin-4-ylethanone]: the IC50 was in the range of 0.01 to 1 µM in test [1] and 10 to 20 µM in test [2].
In the case of `CCc1cc(-c2c[nH]c3ncc(-c4cnn(CCO)c4)cc23)nc(N)n1` [Compound A33, 2-{4-[3-(2-Amino-6-ethylpyrimidin-4-yl)-1H-pyrrolo[2,3-b]pyridin-5-yl]pyrazol-1-yl}ethanol], the IC50 lay within 0.01 to 1 µM in test [1] and 10 to 20 µM in test [2].
For `CCc1cc(-c2c[nH]c3ncc(-c4cnn(CC(=O)N(C)C)c4)cc23)nc(N)n1` [Compound A34, 2-{4-[3-(2-Amino-6-ethylpyrimidin-4-yl)-1H-pyrrolo[2,3-b]pyridin-5-yl]pyrazol-1-yl}-N,N-dimethylacetamide] the same measures were 0.01 to 1 µM and 10 to 20 µM.
On the same counts, the results for `CCCC(O)c1cc(-c2c[nH]c3ncc(-c4cnn(C(C)C)c4)cc23)nc(N)n1` (stereo not shown) [Compound A35, 1-{2-Amino-6-[5-(1-isopropyl-1H-pyrazol-4-yl)-1H-pyrrolo[2,3-b]pyridin-3-yl]-pyrimidin-4-yl}butan-1-ol] are 0.01 to 1 µM and 1 to 10 µM.
On the same counts, the results for `CC(O)Cc1cc(-c2c[nH]c3ncc(-c4cnn(C(C)C)c4)cc23)nc(N)n1` (stereo not shown) [Compound A36, 1-{2-Amino-6-[5-(1-isopropyl-1H-pyrazol-4-yl)-1H-pyrrolo[2,3-b]pyridin-3-yl]-pyrimidin-4-yl}propan-2-ol] are 0.01 to 1 µM and 10 to 20 µM.
As to `CCc1cc(-c2c[nH]c3ncc(-c4ccc(Cl)s4)cc23)nc(N)n1` [Compound A37, 4-[5-(5-Chlorothiophen-2-yl)-1H-pyrrolo[2,3-b]pyridin-3-yl]-6-ethylpyrimidin-2-ylamine], the IC50 in test [1] fell in the range of 1 to 10 µM; in test [2], 10 to 20 µM.
As for `CC(C)n1cc(-c2cnc3[nH]cc(-c4cc(CCCO)nc(N)n4)c3c2)cn1` [Compound A38, 3-{2-Amino-6-[5-(1-isopropyl-1H-pyrazol-4-yl)-1H-pyrrolo[2,3-b]pyridin-3-yl]-pyrimidin-4-yl}propan-1-ol], the figures for the IC50 in test [1] and in test [2] were 0.01 to 1 µM and 10 to 20 µM, respectively.
On the same counts, the results for `CN(C)CCn1cc(-c2cnc3[nH]cc(-c4cc(CCCCO)nc(N)n4)c3c2)cn1` [Compound A39, 4-(2-Amino-6-{5-[1-(2-dimethylaminoethyl)-1H-pyrazol-4-yl]-1H-pyrrolo-[2,3-b]pyridin-3-yl}pyrimidin-4-yl)butan-1-ol] are 0.01 to 1 µM and 10 to 20 µM.
Regarding `CC(C)n1cc(-c2cnc3[nH]cc(-c4cc(CCCCO)nc(N)n4)c3c2)cn1` [Compound A40, 4-{2-Amino-6-[5-(1-isopropyl-1H-pyrazol-4-yl)-1H-pyrrolo[2,3-b]pyridin-3-yl]-pyrimidin-4-yl}butan-1-ol], the IC50 in test [1] lay within 0.01 to 1 µM; in test [2], 1 to 10 µM.
As to `CN(C)CCn1cc(-c2cnc3[nH]cc(-c4cc(CCN5CCN(C)CC5)nc(N)n4)c3c2)cn1` [Compound A41, 4-{5-[1-(2-Dimethylaminoethyl)-1H-pyrazol-4-yl]-1H-pyrrolo[2,3-b]pyridin-3-yl}-6-[2-(4-methylpiperazin-1-yl)ethyl]pyrimidin-2-ylamine], the results for the IC50 in test [1] and in test [2] were 0.01 to 1 µM and 10 to 20 µM, respectively.
On to `CCc1cc(-c2c[nH]c3ncc(-c4ncc(-c5cccc(N)c5)o4)cc23)nc(N)n1` [Compound A42, 4-{5-[5-(3-Aminophenyl)oxazol-2-yl]-1H-pyrrolo[2,3-b]pyridin-3-yl}-6-ethylpyrimidin-2-ylamine], for which the results for the concentration for half-maximal inhibition (IC50) in test [1] and in test [2] were 1 to 10 µM and 10 to 20 µM, respectively.
For `CC(C)n1cc(-c2cnc3[nH]cc(-c4cc(CCN5CCN(C)CC5)nc(N)n4)c3c2)cn1` [Compound A43, 4-[5-(1-Isopropyl-1H-pyrazol-4-yl)-1H-pyrrolo[2,3-b]pyridin-3-yl]-6-[2-(4-methylpiperazin-1-yl)ethyl]pyrimidin-2-ylamine] the same measures were 0.01 to 1 µM and 10 to 20 µM.
As for `CCc1cc(-c2c[nH]c3ncc(-c4cnn(C5CCN(S(C)(=O)=O)CC5)c4)cc23)nc(N)n1` [Compound A44, 4-Ethyl-6-{5-[1-(1-methanesulfonylpiperidin-4-yl)-1H-pyrazol-4-yl]-1H-pyrrolo[2,3-b]pyridin-3-yl}pyrimidin-2-ylamine], the values for the IC50 in test [1] and in test [2] were 0.01 to 1 µM and 1 to 10 µM, respectively.
For `CCc1cc(-c2c[nH]c3ncc(-c4cnn(C5CCN(C(C)=O)CC5)c4)cc23)nc(N)n1` [Compound A46, 1-(4-{4-[3-(2-Amino-6-ethylpyrimidin-4-yl)-1H-pyrrolo[2,3-b]pyridin-5-yl]-pyrazol-1-yl}piperidin-1-yl)ethanone] the same measures were 0.01 to 1 µM and 10 to 20 µM.
Take `CCCC(O)c1cc(-c2c[nH]c3ncccc23)nc(N)n1` (stereo not shown) [Compound A48, 1-[2-Amino-6-(1H-pyrrolo[2,3-b]pyridin-3-yl)pyrimidin-4-yl]butan-1-ol]: the IC50 in test [1] fell in the range of 1 to 10 µM; in test [2], 10 to 20 µM.
Consider `Nc1nc(CCN2CCOCC2)cc(-c2c[nH]c3ncccc23)n1` [Compound A49, 4-(2-Morpholin-4-ylethyl)-6-(1H-pyrrolo[2,3-b]pyridin-3-yl)pyrimidin-2-ylamine], for which the IC50 in test [1] fell in the range of 1 to 10 µM; in test [2], 10 to 20 µM.
For `CN1CCN(CCc2cc(-c3c[nH]c4ncccc34)nc(N)n2)CC1` [Compound A50, 4-[2-(4-Methylpiperazin-1-yl)ethyl]-6-(1H-pyrrolo[2,3-b]pyridin-3-yl)pyrimidin-2-ylamine] the same measures were 1 to 10 µM and 10 to 20 µM.
On the same counts, the results for `CCc1cc(-c2c[nH]c3ncc(-c4cnn(CC(=O)NC)c4)cc23)nc(N)n1` [Compound A51, 2-{4-[3-(2-Amino-6-ethylpyrimidin-4-yl)-1H-pyrrolo[2,3-b]pyridin-5-yl]pyrazol-1-yl}-N-methylacetamide] are 0.01 to 1 µM and 10 to 20 µM.
On the same counts, the results for `CCc1cc(-c2c[nH]c3ncc(-c4cnn(CC(=O)NC5CC5)c4)cc23)nc(N)n1` [Compound A52, 2-{4-[3-(2-Amino-6-ethylpyrimidin-4-yl)-1H-pyrrolo[2,3-b]pyridin-5-yl]pyrazol-1-yl}-N-cyclopropylacetamide] are 0.01 to 1 µM and 10 to 20 µM.
As for `CC(C)n1cc(-c2cnc3[nH]cc(-c4cc(C5(O)CCCCC5)nc(N)n4)c3c2)cn1` [Compound A53, 1-{2-Amino-6-[5-(1-isopropyl-1H-pyrazol-4-yl)-1H-pyrrolo[2,3-b]pyridin-3-yl]-pyrimidin-4-yl}cyclohexanol], the IC50 in test [1] lay within 0.01 to 1 µM; in test [2], 10 to 20 µM.
On to `CC(C)n1cc(-c2cnc3[nH]cc(-c4cc(C5(O)CCCC5)nc(N)n4)c3c2)cn1` [Compound A54, 1-{2-Amino-6-[5-(1-isopropyl-1H-pyrazol-4-yl)-1H-pyrrolo[2,3-b]pyridin-3-yl]-pyrimidin-4-yl}cyclopentanol], for which the results for the IC50 in test [1] and in test [2] were 0.01 to 1 µM and 10 to 20 µM, respectively.
Turning to `CCCCc1cc(-c2c[nH]c3ncc(-c4cnn(CC(=O)N5CCCCC5)c4)cc23)nc(N)n1` [Compound A58, 2-{4-[3-(2-amino-6-butylpyrimidin-4-yl)-1H-pyrrolo[2,3-b]pyridin-5-yl]-pyrazol-1-yl}-1-piperidin-1-ylethanone], the IC50 in test [1] lay in the range of 0.01 to 1 µM; in test [2] it was 1 to 10 µM.
Consider `CCc1cc(-c2c[nH]c3ncc(-c4ccc(CN)cc4)cc23)nc(N)n1` [Compound A81, 4-[5-(4-Aminomethylphenyl)-1H-pyrrolo[2,3-b]pyridin-3-yl]-6-ethylpyrimidin-2-ylamine], for which the values for the IC50 in test [1] and in test [2] were 0.01 to 1 µM and 1 to 10 µM, respectively.
